Data reported in article PMC10744608, “Simplified Synthesis of Renieramycin T Derivatives to Target Cancer Stem Cells via β-Catenin Proteasomal Degradation in Human Lung Cancer” (Marine Drugs, 2023).

How the values were obtained:
[1] = test system: human dermal papilla cells (DP); assay: MTT cell viability assay, normal cells; format: cell-based; settings: for IC50: DP normal cells, 24 h treatment, MTT
[2] = test system: A549 cells; assay: MTT cell viability assay; format: cell-based, human; settings: A549, 24 h treatment
Protocol: (§1) The cell viability was assessed using an MTT assay, determining the half-maximal inhibitory concentration (IC50) to screen right-half RT analogs (DH_18, DH_21, DH_32, DH_35, DH_38, and DH_39). Human NSCLC cells (A549, H23, and H292) were seeded in a 96-well cell culture plate at a density of 1 × 10^4 cells per well and incubated for 24 h at 37 °C. Subsequently, the culture medium was aspirated, and a complete medium with varying concentrations (0–100 μM) of right-half RT analogs was added for 24 h. Following the removal of the compound-containing medium, an MTT reagent at a concentration of 4 mg/mL was applied and incubated for 3 h at 37 °C. The MTT reagent was replaced with 100 μL of DMSO to dissolve the formazan crystals. The measurement of the formazan product was conducted at 570 nm utilizing a microplate reader. RT served as the positive control in this experiment.

[3] = test system: H292 cells; assay: MTT cell viability assay; format: cell-based, human
Protocol: as §1

[4] = test system: H23 cells; assay: MTT cell viability assay; format: cell-based, human
Protocol: as §1

[5] = test system: A549 cells; assay: Nuclear staining assay (Hoechst 33342/PI); format: cell-based, human; settings: A549, 0.5 μM, 24 h; for percentage of apoptosis: Hoechst 33342; for percentage of dead cells: PI staining
Protocol: (§2) The assessment of apoptosis and dead cell counts was performed through costaining with Hoechst 33342 and propidium iodide (PI). Human NSCLCs (1 × 10^4 cells per well) were seeded in a 96-well plate, incubated at 37 °C, and exposed to all right-half RT analogs at a concentration of 0.5 μM. After treatment, the cells were rinsed with PBS and subjected to co-staining with Hoechst 33342 (10 μg/mL) and propidium iodide (PI) (0.02 μg/mL) for 30 min at 37 °C. Fluorescence microscopy (Olympus 1X51 with a DP70 digital camera, Tokyo, Japan) was utilized to observe the fragmented nuclei indicative of apoptotic cells stained with Hoechst 33342 and the positive PI staining for dead cells. Subsequently, the percentages of apoptosis and dead cells were calculated. In this experiment, RT at a concentration of 0.5 μM served as the positive control.

[6] = test system: H292 cells; assay: Nuclear staining assay (Hoechst 33342/PI); format: cell-based, human; settings: H292, 0.5 μM, 24 h; for percentage of apoptosis: Hoechst 33342; for percentage of dead cells: PI staining
Protocol: as §2

[7] = test system: H23 cells; assay: Nuclear staining assay (Hoechst 33342/PI); format: cell-based, human; settings: H23, 0.5 μM, 24 h; for percentage of apoptosis: Hoechst 33342; for percentage of dead cells: PI staining
Protocol: as §2

[8] = test system: A549 cells; assay: Proliferation assay (MTT); format: cell-based, human
Protocol: (§3) An MTT assay was employed to evaluate the antiproliferative impact of the right-half RT analog, DH_32, over a period of three consecutive days. The human NSCLC cells lines A549, H23, and H292 were seeded at a cell density of 2 × 10^3 cells per well in a 96-well plate. The cells were exposed to low concentrations (0, 25, 50, and 100 nM) of DH_32 at various time points (0 h, 24 h, 48 h, and 72 h) and then incubated under 5% CO2 at 37 °C. Subsequently, the cell viability was assessed using an MTT assay at 0 h, 24 h, 48 h, and 72 h. The percentage of cell proliferation was determined by dividing the optical density (OD) of the cells at each time point by the OD of the non-treated control cells. In this experiment, RT served as the positive control.

[9] = test system: H292 cells; assay: Proliferation assay (MTT); format: cell-based, human; settings: H292, 24 h, 25 nM
Protocol: as §3

[10] = test system: H23 cells; assay: Proliferation assay (MTT); format: cell-based, human; settings: H23, 24 h, 25 nM
Protocol: as §3

[11] = test system: β-catenin in A549, H292, and H23 cells; assay: Immunofluorescence of β-catenin; format: cell-based, human; settings: 24 h; DH_32 0–100 nM, RT 25 nM
Protocol: A549, H23, and H292 NSCLC cells were seeded at a concentration of 1 × 10^4 cells per well in 96-well plates. The cells were exposed to different concentrations of DH_32 (0, 25, 50, and 100 nM) for 24 h, after which the medium was removed. Following that, the cells were subjected to fixation with 4% paraformaldehyde for 15 min. The cells were permeabilization with 0.5% Triton-X for 5 min, followed by the blocking of non-specific proteins with 10% FBS in 0.1% Triton-X PBS for 1 h at room temperature. The cells were exposed to a 1:400 dilution of primary antibodies (CD133, CD44, ALDH1A1, OCT4, NANOG, SOX2, and β-catenin) and incubated at 4 °C overnight. On the subsequent day, the cells were treated with a 1:500 dilution of the following secondary antibodies: Alexa Fluor 594-conjugated goat anti-rabbit IgG (H+L) (Invitrogen) and Alexa Fluor 488-conjugated goat anti-mouse IgG (H+L) (Invitrogen). Simultaneously, the localization of nuclei was stained with Hoechst 33342 for 1 h at room temperature. The cells were rinsed with PBS and then covered with 50% glycerol. The images were captured by a fluorescence microscope (Olympus IX 51 with DP70; Olympus America Inc., Center valley, PA, USA). The fluorescence intensity was measured by Image J software. RT acted as the positive control for this experiment.

[12] = A549, 48 h, DH_32 25, 50, and 100 nM, RT 25 and 50 nM

COC1=C(C)C(=O)C2=C(C1=O)[C@@H]1CN(Cc3ccc4ccccc4c3)[C@@H](C#N)[C@H](C2)N1C [DH_32, (1R,4R,5S)-9-methoxy-8,11-dimethyl-3-(naphthalen-2-ylmethyl)-7,10-dioxo-1,2,3,4,5,6,7,10-octahydro-1,5-epiminobenzo[d]azocine-4-carbonitrile]
selectivity index (SI) ([1]; DP cells versus A549): 8.42
selectivity index (SI) ([1]; DP cells versus H23): 16.51
selectivity index (SI) ([1]; DP cells versus H292): 23.40
IC50 ([1]; Homo sapiens, Human dermal papilla cell): 34.2 ± 1.22 µM
IC50 ([2]; Homo sapiens): 4.06 ± 0.24 µM
IC50 ([3]; Homo sapiens, NCI-H292, H292, 24 h treatment): 1.46 ± 0.06 µM
IC50 ([4]; Homo sapiens, NCI-H23, H23, 24 h treatment): 2.07 ± 0.11 µM
percentage of apoptosis [5]: 29.33 ± 0.51%
percentage of dead cells [5]: 23.38 ± 0.96%
percentage of apoptosis [6]: 34.13 ± 0.97%
percentage of dead cells [6]: 29.82 ± 1.26%
percentage of apoptosis [7]: 39.29 ± 1.88%
percentage of dead cells [7]: 35.07 ± 1.67%
proliferation rate ([8]; A549, 24 h, 50 and 100 nM): decreased proliferation rate
proliferation rate [8, 12]: significant reduction in cell proliferation
proliferation rate [9]: substantial reduction in the proliferation rate
proliferation rate [10]: substantial reduction in the proliferation rate
β-catenin level by immunofluorescence [11]: decrease in the fluorescence signal of β-catenin

CC=C(C)C(=O)OCC1c2c(c(O)c(C)c3c2OCO3)CC2C3C4=C(CC(C(C#N)N12)N3C)C(=O)C(C)=C(OC)C4=O (stereo not drawn) [RT, Renieramycin T]
IC50 [1]: 13.7 ± 0.33 µM
IC50 [2]: 5.76 ± 0.23 µM
IC50 ([3]; H292, 24 h treatment): 1.52 ± 0.05 µM
IC50 ([4]; H23, 24 h treatment): 2.93 ± 0.07 µM
percentage of apoptosis [5]: 24.95 ± 1.32%
percentage of dead cells [5]: 21.60 ± 0.99%
percentage of apoptosis [6]: 29.63 ± 0.47%
percentage of dead cells [6]: 26.31 ± 1.04%
percentage of apoptosis [7]: 33.41 ± 0.53%
percentage of dead cells [7]: 31.15 ± 0.48%
proliferation rate ([8]; A549, 24 h, 50 and 100 nM): did not affect the proliferation
proliferation rate [8, 12]: did not exhibit any effect
proliferation rate [9]: did not exhibit any change in their proliferation rate
proliferation rate [10]: did not exhibit any change in their proliferation rate
β-catenin level by immunofluorescence [11]: unaltered level of β-catenin
